# Tested on: HDAC (HeLa cell nuclear extract, a mosaic of HDAC enzymes)
# Assay: In vitro fluorescent histone deacetylase assay (Biomol HDAC fluorescent activity kit)
# Format: biochemical
# Details: compound concentration 100 μM; HeLa cell nuclear extract as HDAC source; substrate 50 μM, 10 min, room temperature
# Method: Histone deacetylase (HDAC) activity assays were performed using the HDAC fluorescent activity assay/drug discovery kit (Biomol Research Laboratories, Plymouth Meeting, Pa.) essentially according to the manufacturer's instructions. The included HeLa cell nuclear extract, which contains a mosaic of HDAC enzymes and other nuclear factors, was used as the source of HDAC activity. The final substrate concentration in the assay mixture was 50 μM. The reaction was allowed to proceed for 10 min at room temperature before stopping the reaction. Test compounds were prepared as 20 mM stock solutions in DMSO (Molecular Biology grade, Sigma-Aldrich Co., St. Louis, Mo.) and stored at −70° C. Serial dilutions of test compounds were prepared in assay buffer immediately prior to testing. DMSO was determined in a separate trial to have no significant effect on the activity of this assay at concentrations up to 5%; the final DMSO concentration in the wells was no more than 2% and therefore DMSO effects were safely neglected. Assays were performed in white polystyrene 96-well half-area assay plates (Corning, Corning, N.Y.) and measured on a Wallace 1420 fluorescent plate reader (Wallac Oy, Turku, Finland) with an excitation wavelength of 355 nm, an emission wavelength of 460 nm, and a 1 sec signal averaging time.
row,Structure (SMILES),% inhibition HDAC @ 100 μM
1,"O=C(NO)c1cnc(N2CCN(S(=O)(=O)c3ccc(-c4ccsc4CN4CCCC4)cc3)CC2)s1 [Example 282, 2-(4-[4-{(2-(pyrrolidin-1-ylmethyl)-thien-3-yl)phenylsulfonyl}]piperazin-1-yl)-1,3-thiazole-5-carboxylic acid hydroxyamide]",99%
2,"O=C(NO)c1cnc(N2CCN(S(=O)(=O)c3ccc4nsnc4c3)CC2)s1 [Example 246, 2-[4-(2,1,3-benzothiadiazole-5-sulfonyl)-piperazin-1-yl]-thiazole-5-carboxylic acid hydroxyamide]",98%
3,"O=C(NO)c1cnc(N2CCN(S(=O)(=O)c3cccc(-c4ccccc4)c3)CC2)s1 [Example 251, 2-[4-(3-biphenylsulfonyl)piperazin-1-yl]-thiazole-5-carboxylic acid hydroxyamide]",100%
4,"CSc1nccc(-c2ccc(S(=O)(=O)N3CCN(c4ncc(C(=O)NO)s4)CC3)s2)n1 [Example 245, 2-[4-(2-{2-methylthiopyrimidine-4-yl}-5-thiophenesulfonyl)-piperazin-1-yl]-thiazole-5-carboxylic acid hydroxyamide]",95%
5,CN1CCN(Cc2cccc(-c3ccc(S(=O)(=O)N4CCN(c5ncc(C(=O)NO)s5)CC4)cc3)c2)CC1 [Example 284],100%
6,O=C(NO)c1cnc(N2CCN(S(=O)(=O)c3ccc(CN4CCOCC4)cc3)CC2)s1 [Example 306],99%
7,"O=C(NO)c1cnc(N2CCN(S(=O)(=O)CCc3ccccc3)CC2)s1 [Example 294, 2-[4-(phenethylsulfonyl)piperazin-1-yl]-thiazole-5-carboxylic acid hydroxyamide]",98%
